From patent publication US5356921A, “Imidazolylphenol compounds, pharmaceutical compositions containing them, and processes for preparing such compounds and compositions” (Gruenenthal GmbH, priority 1992, dated 1994)

Key:
5-lipoxygenase [1] = test: 5-lipoxygenase inhibition in rat blood after oral administration (ex vivo iLTB4-formation); details: male Wistar rats, 21.5 mg/kg oral, one hour after administration, A 23 187 15 μg/ml
Procedure: The bioavailability of the compounds of formula I as 5-lipoxygenase inhibitors was characterized by means of an ex vivo biochemical assessment method described by Tateson et al. in Brit. J. Pharmacol. 94, 528 (1988). A compound of formula I was orally administered to male rats (Wistar strain) in a dose of 21.5 mg/kg. One hour after administration the rats after lethal CO2 -narcosis were bled by heart puncture with added heparin as an anticoagulant. Aliquots of the whole blood were incubated at 37° C. for 30 minutes in a water bath with calcium ionophore A 23 187 at an end concentration of 15 μg/ml. At the end of the incubation the samples were centrifuged, and the concentration of immunoreactive LTB4 (iLTB4) in aliquots of […] percent inhibition of ex vivo iLTB4 -formation in whole blood of rats treated with a compound according to the invention, rats orally treated with an appropriate vehicle solution were included in all experiments, and aliquots of their blood were run in parallel and were processed in the same way as described. The average iLTB4 -content of the plasma of the vehicle treated rats served as the 100% value. The activity in percent of the ex vivo iLTB4 -formation after oral administration of a compound according to the invention was calculated by dividing the average value of the iLTB4 -content in ng iLTB4 /ml of the group treated with a compound according to the invention by the average value of the iLTB4 -contents in ng iLTB4 /ml of the vehicle treated group and subsequent multiplication by the factor 100. The respective inhibition in percent was calculated by subtracting the activity in percent from 100.

thromboxane synthase = target: T1, thromboxane synthase (Homo sapiens, UniProt P24557); test: Inhibition of thromboxane synthase (human thrombocytes); format: cell-based; details: for IC50: human thrombocytes, arachidonic acid 3.5 μM, read-out: IC50-Value, inhibition of thromboxane synthase (TXB2 formation); for inhibitory action on thromboxane synthase: in words
T1 construct: human thrombocytes were isolated from platelet-rich plasma; endogenous in cells; host or cells: human thrombocytes (platelets), intact
T1 sequence (P24557 1-533): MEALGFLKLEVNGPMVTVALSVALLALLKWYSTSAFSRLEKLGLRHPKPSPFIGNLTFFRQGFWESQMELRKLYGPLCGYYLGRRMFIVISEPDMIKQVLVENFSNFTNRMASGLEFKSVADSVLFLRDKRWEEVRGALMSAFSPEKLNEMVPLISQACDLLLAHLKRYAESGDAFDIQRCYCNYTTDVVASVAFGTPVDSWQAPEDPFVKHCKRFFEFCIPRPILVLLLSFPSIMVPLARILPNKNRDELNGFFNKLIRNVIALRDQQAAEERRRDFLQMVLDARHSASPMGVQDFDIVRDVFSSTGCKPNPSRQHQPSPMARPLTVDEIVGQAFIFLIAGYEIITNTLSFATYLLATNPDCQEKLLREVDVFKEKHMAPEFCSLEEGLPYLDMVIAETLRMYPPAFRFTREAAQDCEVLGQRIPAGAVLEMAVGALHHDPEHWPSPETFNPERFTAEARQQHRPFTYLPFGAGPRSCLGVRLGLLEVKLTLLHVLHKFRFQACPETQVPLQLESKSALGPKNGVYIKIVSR
Procedure: After addition of prostacyclin, human thrombocytes were isolated from platelet-rich plasma and suspended in Tyrode-Hepes buffer of pH 7.4 at 2×10^8 cells/ml. One ml aliquots of cells were incubated either with a compound according to the invention (0.1 to 100 μM) or a solvent (ethanol and/or dimethyl sulfoxide) at 37° C. for 3 minutes and thereafter with radioactively labelled arachidonic acid (3.5 μM) for 5 minutes. The reaction was stopped and the metabolites of arachidonic acid were extracted by adding methanol, chloroform and formic acid. After evaporation of the chloroform-containing layer to dryness under nitrogen, the residue obtained was resuspended in 50 μl chloroform and analyzed by thin layer chromatography. The distribution of the radioactivity of the different metabolites of arachidonic acid was measured using a TLC linear analyzer.

5-lipoxygenase [2] = target: T2, 5-lipoxygenase (Rattus norvegicus, UniProt P12527); test: Inhibition of cell-free 5-lipoxygenase from RBL-1-cells; format: biochemical; details: 10,000×g supernatant of RBL cells; polarographic; arachidonic acid 75 μM
T2 construct: endogenous in cells; host or cells: RBL-1 cells (rat basophilic leukemia), intact
T2 sequence (P12527 1-673): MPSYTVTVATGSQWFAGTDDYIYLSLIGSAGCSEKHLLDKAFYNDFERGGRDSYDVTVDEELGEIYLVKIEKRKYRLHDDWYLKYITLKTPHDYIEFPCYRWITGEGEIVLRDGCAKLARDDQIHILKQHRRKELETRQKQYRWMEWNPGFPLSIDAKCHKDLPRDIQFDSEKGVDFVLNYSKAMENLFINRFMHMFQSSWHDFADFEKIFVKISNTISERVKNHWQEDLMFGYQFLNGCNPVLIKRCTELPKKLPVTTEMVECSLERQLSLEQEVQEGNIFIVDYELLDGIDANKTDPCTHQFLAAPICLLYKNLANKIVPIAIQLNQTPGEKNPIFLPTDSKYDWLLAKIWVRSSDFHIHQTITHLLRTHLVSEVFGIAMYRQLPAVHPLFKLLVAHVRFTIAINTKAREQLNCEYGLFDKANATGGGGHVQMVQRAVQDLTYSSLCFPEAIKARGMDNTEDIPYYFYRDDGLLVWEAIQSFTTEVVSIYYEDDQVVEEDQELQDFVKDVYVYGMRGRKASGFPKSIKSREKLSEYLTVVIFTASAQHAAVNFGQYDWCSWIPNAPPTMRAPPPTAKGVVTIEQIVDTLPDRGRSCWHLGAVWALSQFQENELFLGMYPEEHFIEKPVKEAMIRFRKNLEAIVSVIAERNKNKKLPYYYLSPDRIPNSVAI
Procedure: Cell-free 5-lipoxygenase was polarographically measured from 10,000×gsupernatant of homogenized rat basophilic leucemia cells [M. Haurand and L. Flohe in Biol. Chem. Hoppe-Seyler 369, 133-142 (1988)]. After preincubation of the 10,000×g supernatant with arachidonic acid (75 μM), ATP (adenosine triphosphate; 4 μM), reduced glutathione (4 mM), and either a compound according to the invention (0.1 to 100 μM) or a solvent (ethanol and/or dimethyl sulfoxide) at 35° C. for 5 minutes, the lipoxygenase reaction was initiated by addition of calcium chloride (3 mM) and recorded simultaneously.
The activity of 5-lipoxygenase was determined from the difference of the pO2 -decrease before and after addition of calcium chloride. The evaluation included the initial rate of the reaction after the lag-phase as well as the duration of the lag-phase. In a concentration range of from 5 to 10 μM the test substances induced lag-phases of 15 seconds.

5-lipoxygenase [3] = target: T2, 5-lipoxygenase; test: Inhibition of 5-lipoxygenase in RBL-1-cells; format: cell-based; details: 20 μM [14C]-arachidonic acid, 20 μM A 23 187
Procedure: To determine the inhibition of 5-lipoxygenase rat basophilic leukemia cells (RBL-1-cells) were cultured in vitro, harvested by centrifugation, washed with 50 mM potassium phosphate buffer of pH 7.4, and then suspended in this buffer at 1×10^7 cells/mi. To 1 ml each of this suspension there was added indomethacin (10 μM) and calcium chloride (2 mM), and then the mixture was incubated in the absence or presence of a compound according to the invention in a concentration range of from 0.1 μM to 100 μM for 3 minutes and thereafter with 20 μM of [^14 C]-arachidonic acid and 20 μM of the calcium ionophore A 23 187 for 10 minutes. The reaction was stopped by adding 20 μl of glacial acetic acid, and then the mixture was extracted with ethyl acetate to isolate the metabolites of arachidonic acid formed by the enzymatic action of 5-lipoxygenase. These were separated by thin layer chromatography using a solvent mixture known to be suitable for lipoxygenase products [c.f. Jakschik et al., Biochem. Biophys. Res. Commun. 102, 624 (1981)].
The distribution of the radioactivity among the various metabolites of arachidonic acid was measured using a TLC Linear Analyzer. By correlating the percentages of the amount of the products formed under the action of 5lipoxygenase (5-HETE, isomers of LTB4) in the absence as well as in the presence of different concentrations of compounds according to the invention, the IC50 -values, i.e. the concentrations which cause 50% inhibition of 5-lipoxygenase were determined graphically from semilogarithmic diagrams.

guinea pigs = test: Allergen-induced bronchoconstriction in guinea pigs (Konzett-Roessler); format: in vivo, guinea pig; details: 60 minutes before ovalbumin
Procedure: The antiasthmatic effect of compounds according to the invention was tested in anesthetized and ventilated guinea pigs. To induce an asthmatic reaction, the animals were passively sensitized by a single intraperitoneal injection of anti-ovalbumin serum. After 48 hours an asthmatic reaction was elicited by intravenous challenge with 0.2 mg/kg of ovalbumin. The immediately resulting bronchoconstriction was measured as an increase in intratracheal pressure. Effects caused by histamine, serotonin and sympathic counterreaction were eliminated by intravenous pretreatment with 2.15 mg/kg of mepyramine, 46.4 μg/kg of propranolol, 4.64 mg/kg of atropine, and 1 mg/kg of methysergide, all administered 5 minutes before challenge. Compounds according to the invention were orally administered 60 minutes before the administration of ovalbumin. The following ED40-values for the inhibition of the bronchoconstriction elicited by ovalbumin, i.e. the effective doses causing a 40% average inhibition of the bronchoconstriction, were determined: […]

5-lipoxygenase [4] = details: in words, no test shown; cited from earlier work

Row | Compound | IC50 (thromboxane synthase) | IC50 (5-lipoxygenase [3]) | Inhibition of ex vivo iLTB4-formation in whole blood (5-lipoxygenase [1]) | inhibitory action on thromboxane synthase (thromboxane synthase) | also measured
1 | NC(=O)N(O)Cc1ccc(OCCn2ccnc2)cc1 [Comparison, N-hydroxy-N-[4-[2-(1H-imidazol-1-yl)ethoxy]phenylmethyl]urea, reference compound] | 4 µM | > 100 µM | 42% |  | IC50 (5-lipoxygenase [2]): > 100 µM
2 | NC(=O)N(O)Cc1ccc(Oc2ccc(-n3ccnc3)cc2)o1 [Example 6, N-hydroxy-N-[5-[4-(1H-imidazol-1-yl)phenoxy]furan-2-yl-methyl]urea] |  |  | 84% |  | 
3 | Cl.O=C(O)c1ccc(OCCn2ccnc2)cc1 [UK 37 248, 4-[2-(1H-imidazol-1-yl)-ethoxy]benzoic acid hydrochloride, reference compound] |  |  |  | inhibits the activity of thromboxane synthase | inhibits the activity of 5-lipoxygenase (5-lipoxygenase [4]): not the activity of 5-lipoxygenase
4 | CC(c1cc2ccccc2s1)N(O)C(N)=O (centres unmarked) [Zileuton (A 64 077), reference compound] | > 100 µM |  |  | did not exert an inhibitory action on thromboxane synthase | 

More lines, main results first:

Row | IC50 (thromboxane synthase) | IC50 (5-lipoxygenase [3]) | Compound | Inhibition of ex vivo iLTB4-formation in whole blood (5-lipoxygenase [1]) | inhibitory action on thromboxane synthase (thromboxane synthase) | also measured
5 |  | 5 µM | NC(=O)N(O)Cc1ccc(Oc2ccc(-n3ccnc3)cc2)cc1 [Example 2, Imidazolium Chloride of N-hydroxy-N-[4-[4-(1H-imidazol-1-yl)phenoxy]phenylmethyl]urea] |  |  | ED50-Value, inhibition of the bronchoconstriction elicited by ovalbumin (guinea pigs; oral, ED40): 5.1 mg/kg; Inhibition of ex vivo iLTB4-formation in whole blood (5-lipoxygenase [1]; 21.5 mg/kg): 95%
6 |  | 3 µM | NC(=O)N(O)Cc1ccc(Oc2ccc(-n3ccnc3)cc2)s1 [Example 4, N-hydroxy-N-[5-[4-(1H-imidazol-1-yl)phenoxy]thien-2-yl-methyl]urea] | 93% |  | ED40 (guinea pigs; Cavia porcellus, po, 1 h, read-out: ED40-Value, inhibition of the bronchoconstriction elicited by ovalbumin): 6.3 mg/kg
7 | 2.5 µM | 6 µM | NC(=O)N(O)Cc1cccc(Oc2ccc(-n3ccnc3)cc2)c1 [Example 5, N-hydroxy-N-[3-[4-(1H-imidazol-1-yl)phenoxy]phenylmethyl]urea] |  | same inhibitory potency as the hydrochloride of the imidazolylethoxybenzoic acid UK 37 248 | IC50 (5-lipoxygenase [2]): 2 µM
8 |  | 2 µM | NC(=O)N(O)Cc1ccc(Oc2cccc(-n3ccnc3)c2)cc1 [Example 10, N-hydroxy-N-[4-[3-(1H-imidazol-1-yl)phenoxy]phenylmethyl]urea] |  |  | 
